One may read the inhibition as the percentage by which the read-out fell short of the control. Higher therefore signals strong suppression.

A value given as a limit tells only on which side of the number the result lay.

Assay [1] deals with T1, zebrafish Kv7.1 (KCNQ1) (Danio rerio, UniProt B0R0K2).
T1 construct: gene kcnq1.1
T1 sequence (B0R0K2 1-655): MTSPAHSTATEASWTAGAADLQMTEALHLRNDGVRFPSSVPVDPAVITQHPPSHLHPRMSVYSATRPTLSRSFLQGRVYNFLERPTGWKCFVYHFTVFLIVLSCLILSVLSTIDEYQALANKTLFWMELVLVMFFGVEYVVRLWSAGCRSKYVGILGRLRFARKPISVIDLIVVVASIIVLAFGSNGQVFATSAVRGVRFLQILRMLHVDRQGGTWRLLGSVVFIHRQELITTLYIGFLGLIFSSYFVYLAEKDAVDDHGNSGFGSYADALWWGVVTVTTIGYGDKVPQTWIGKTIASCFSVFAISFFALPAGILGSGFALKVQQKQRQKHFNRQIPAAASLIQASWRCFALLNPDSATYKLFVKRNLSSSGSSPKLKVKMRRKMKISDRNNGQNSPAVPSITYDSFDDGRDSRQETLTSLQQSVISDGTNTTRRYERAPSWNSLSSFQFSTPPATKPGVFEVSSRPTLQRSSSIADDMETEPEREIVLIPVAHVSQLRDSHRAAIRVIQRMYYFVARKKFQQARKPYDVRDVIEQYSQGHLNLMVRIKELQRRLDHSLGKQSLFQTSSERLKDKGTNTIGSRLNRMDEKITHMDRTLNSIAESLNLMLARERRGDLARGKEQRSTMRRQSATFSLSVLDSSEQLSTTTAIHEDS
Description: two-electrode voltage clamp, zebrafish Kv7.[…] expressed in Xenopus laevis oocytes. The format is cell-based. In general terms: Two-electrode voltage clamp is typically applied to oocytes expressing channels or transporters.

Assay [2] concerns the target T1, zebrafish Kv7.1 (KCNQ1). The experiment in a line: cell-based. The format is cell-based.

For `CCS(=O)(=O)N(C)[C@H]1c2cc(C#N)ccc2OC(C)(C)[C@@H]1O` (racemic) [chromanol 293B], 10 µM produced 76% inhibition on zebrafish Kv7.1 (KCNQ1) [1]. On to `CC/C=C\C/C=C\C/C=C\C/C=C\C/C=C\C/C=C\CCC(=O)NCC(=O)O` [DHA-Gly], for which the “two-electrode voltage clamp, zebrafish Kv7.1 expressed in Xenopus laevis oocytes” value at zebrafish Kv7.1 (KCNQ1) [2] was 12.2 mV left shift of V0.5 at 20 µM. For the molecule `COc1ccc(-c2csc(NC(=O)[C@H]3CCCCN3S(=O)(=O)c3ccc(C)cc3)n2)cc1` [ML-277], on zebrafish Kv7.1 (KCNQ1) [2] (read-out: two-electrode voltage clamp, zebrafish Kv7.1 expressed in Xenopus laevis oocytes), the fold induction at 1 µM was more than 8.
